Results taken from patent US20140286903A1, “Substituted Purine Nucleosides, Phosphoramidate and Phosphordiamidate Derivatives for Treatment if Viral Infections” (INHIBITEX, INC., priority 2011, published 2014).

How the values were obtained:
[1] = Cytotoxicity assay (CellTiter-Glo); format: cell-based; conditions: human, 72 h incubation, concentration resulting in 50% luminescent signal
Experimental: (§1) Further to the above Examples, representative compounds, prepared according to the examples were tested for potency in an HCV replicon assay (Genotype 1b) for activity against the virus (EC50) and toxicity to the cells (CC50).
(§2) Huh7 Replicon Cell Lines and Cell Culture Conditions: A luciferase-reporter genotype 1b subgenomic replicon cell line, and a genotype 1a full-length replicon cell line were obtained from Apath, LLC, Brooklyn, N.Y.: All cell lines were passaged twice a week by splitting 4 or 6 fold. Cells were maintained in DMEM-high glucose medium (HyClone, Logan, Utah) supplemented with 9% FBS (HyClone), 2 mM glutamine (Invitrogen, Carlsbad, Calif.), 100 U/mL PenStrep (Invitrogen). Media also contained 0.25 mg/mL of the antibiotic G-418 to maintain stable expression of the replicon (Invitrogen). Incubation was performed at 37° C. in 5% CO2 atmosphere. Replicon cell lines were used until they accumulated 15-to-18 passages, after which cells were restarted from the frozen stock. Seeding cell counts were routinely determined using an automatic Cedex HiRes cell counter (Flownomics Analytical Instruments, Madison, Wis.) or manually using INCYTO C-Chip™ Disposable Hemacytometers (Fisher Scientific, Pittsburg, Pa.).
Cytotoxicity Assay. Cells were seeded into 96-well plates at a density of 2×10^4 cells per well. 24 h after cell plating, 11 serial 2× compound dilutions, starting with 100 µM, were applied to the testing plates (3 repeats per compound dilution). Each testing plate was run with a “no-compound” control. Incubation with compounds was continued at 37° C. in a CO2 incubator for 72 h. To determine cell viability, the CellTiter-Glo® assay (Promega, Madison, Wis.) was performed according to the manufacturer's protocol. The compound concentration resulting in 50% luminescent signal was reported as the CC50 concentration.

[2] = tested on: HCV replicon (Genotype 1b); assay: Luciferase genotype 1b replicon potency assay; format: cell-based, hepatitis C virus; conditions: Renilla luciferase reporter activity, 50% decrease vs untreated cells
Experimental: as §1, §2
Luciferase Genotype 1b Replicon Potency Assay. Replicon cells were seeded into white 96-well plates (Nunc/VWR) at a density of 2×10^4 cells/well in medium without G-418. A Stacker Multidrop Liquid Dispenser (MTX Lab Systems, Vienna, Va.) was employed to ensure uniform and fast cell seeding into multiple plates. 18-24 h after cell plating, inhibitors were added and cells were incubated for additional 24, 48, or 72 h (as indicated). Compounds were tested in triplicates and quadruplicates at 3× or 4× serial dilutions over a range of 0.0001-to-10 μM concentrations. HCV replication was monitored by Renilla luciferase reporter activity assay using Renilla luciferase reporter (Promega, Madison, Wis.) and a Veritas Luminometer (Turner Biosystems, Sunnyvale, Calif.). 50% and 90% inhibitory concentration (IC50 and IC90) values were calculated as the concentration of compound that results correspondingly in 50% and 90% decreases in the reporter expression as compared to untreated cells. The values were determined by non-linear regression (four-parameter sigmoidal curve fitting) analysis.

[3] = Hepatitis C virus, Huh-7, Huh7 luciferase-reporter genotype 1b subgenomic replicon cells
[4] = Huh7 HCV replicon cells (genotype 1b)

Row | SMILES | CC50 at 72 h [1] [µM] | IC50 [2, 3] [µM] | CC50 at 72 h [1, 4] [µM] | IC50 ([2]; Huh7 luciferase-reporter genotype 1b subgenomic replicon cells) [µM]
1 | COc1nc(N)nc2c1ncn2[C@@H]1O[C@H](COP(=O)(N[C@H](C(=O)OCc2ccccc2)C(C)C)Oc2cccc3ccccc23)[C@@H](F)[C@@]1(C)O (stereo partly drawn) [Example 26, (2S)-Benzyl 2-((((2R,3R,4S,5R)-5-(2-amino-6-methoxy-9H-purin-9-yl)-3-fluoro-4-hydroxy-4-methyltetrahydrofuran-2-yl)methoxy)(naphthalen-1-yloxy)phosphorylamino)-3-methylbutanoate] | 14 | 4 |  | 
2 | COc1nc(N)nc2c1ncn2[C@@H]1O[C@H](CO)[C@@H](F)[C@@]1(C)O [Example 2, (2R,3S,4R,5R)-2-(2-amino-6-methoxy-9H-purin-9-yl)-4-fluoro-5-(hydroxymethyl)-3-methyltetrahydrofuran-3-ol] |  | > 100 | > 100 | 
3 | COc1nc(N)nc2c1ncn2[C@@H]1O[C@H](COP(=O)(N[C@@H](C)C(=O)OCc2ccc(F)cc2F)Oc2cccc3ccccc23)[C@@H](F)[C@@]1(C)O (stereo partly drawn) [Example 13, (2S)-2,4-Difluorobenzyl 2-((((2R,3R,4S,5R)-5-(2-amino-6-methoxy-9H-purin-9-yl)-3-fluoro-4-hydroxy-4-methyltetrahydrofuran-2-yl)methoxy)(naphthalen-1-yloxy)phosphorylamino)propanoate] | 68 | 1 |  | 
4 | C[C@H](NP(=O)(OC[C@H]1O[C@@H](n2cnc3c(N4CCC4)nc(N)nc32)[C@](C)(O)[C@@H]1F)Oc1cccc2ccccc12)C(=O)OC1CCCC1 (stereo partly drawn) [Example 24, (2S)-Cyclopentyl 2-((((2R,3R,4S,5R)-5-(2-amino-6-(azetidin-1-yl)-9H-purin-9-yl)-3-fluoro-4-hydroxy-4-methyltetrahydrofuran-2-yl)methoxy)(naphthalen-1-yloxy)phosphorylamino)propanoate] | 50 | 0.9 |  | 
5 | COc1nc(N)nc2c1ncn2[C@@H]1O[C@H](COP(=O)(N[C@@H](C)C(=O)OC2CCCC2)Oc2cccc3ccccc23)[C@@H](F)[C@@]1(C)O (stereo partly drawn) [Example 17, (2S)-Cyclopentyl 2-((((2R,3R,4S,5R)-5-(2-amino-6-methoxy-9H-purin-9-yl)-3-fluoro-4-hydroxy-4-methyltetrahydrofuran-2-yl)methoxy)(naphthalen-1-yloxy)phosphorylamino)propanoate] | 40 | 0.45 |  | 
6 | C[C@H](NP(=O)(OC[C@H]1O[C@@H](n2ccc(=O)[nH]c2=O)[C@](C)(O)[C@@H]1F)Oc1cccc2ccccc12)C(=O)OCC(C)(C)C (stereo partly drawn) [Example 33, (2 S)-Neopentyl 2-((((2R,3R,4S,5R)-5-(2,4-dioxo-3,4-dihydropyrimidin-1(2H)-yl)-3-fluoro-4-hydroxy-4-methyltetrahydrofuran-2-yl)methoxy)(naphthalen-1-yloxy)phosphorylamino)propanoate] | 75 | > 40 |  | 
7 | C[C@H](NP(=O)(OC[C@H]1O[C@@H](n2cnc3c(N)ncnc32)[C@](C)(O)[C@@H]1F)Oc1cccc2ccccc12)C(=O)OCC(C)(C)C (stereo partly drawn) [Example 31, (2S)-Neopentyl 2-((((2R,3R,4S,5R)-5-(6-amino-9H-purin-9-yl)-3-fluoro-4-hydroxy-4-methyltetrahydrofuran-2-yl)methoxy)(naphthalen-1-yloxy)phosphorylamino)propanoate] | 31 | 11 |  | 
8 | CCCCOC(=O)[C@H](C)NP(=O)(OC[C@H]1O[C@@H](n2cnc3c(OC)nc(N)nc32)[C@](C)(O)[C@@H]1F)Oc1cccc2ccccc12 (stereo partly drawn) [Example 14, (2S)-butyl 2-((((2R,3R,4S,5R)-5-(2-amino-6-methoxy-9H-purin-9-yl)-3-fluoro-4-hydroxy-4-methyltetrahydrofuran-2-yl)methoxy)(naphthalen-1-yloxy)phosphorylamino)propanoate] | 40 | 0.33 |  | 
9 | C[C@]1(O)[C@H](F)[C@@H](CO)O[C@@H]1n1cnc2c(Cl)nc(N)nc21 [Example 5, (2S,3R,4R,5R)-2-(2-amino-6-chloro-9H-purin-9-yl)-4-fluoro-5-(hydroxymethyl)-3-methyltetrahydrofuran-3-ol] |  | > 100 | > 100 | 
10 | CCOc1nc(N)nc2c1ncn2[C@@H]1O[C@H](COP(=O)(N[C@@H](C)C(=O)OC2CCCCC2)Oc2cccc3ccccc23)[C@@H](F)[C@@]1(C)O (stereo partly drawn) [Example 22, (2S)-Cyclohexyl 2-((((2R,3R,4S,5R)-5-(2-amino-6-ethoxy-9H-purin-9-yl)-3-fluoro-4-hydroxy-4-methyltetrahydrofuran-2-yl)methoxy)(naphthalen-1-yloxy)phosphorylamino)propanoate] | 16 | 0.73 |  | 
11 | C[C@H](NP(=O)(OC[C@H]1O[C@@H](n2cnc3c(N4CCC4)nc(N)nc32)[C@](C)(O)[C@@H]1F)Oc1cccc2ccccc12)C(=O)OC1CCCCC1 (stereo partly drawn) [Example 25, (2S)-Cyclohexyl 2-((((2R,3R,4S,5R)-5-(2-amino-6-(azetidin-1-yl)-9H-purin-9-yl)-3-fluoro-4-hydroxy-4-methyltetrahydrofuran-2-yl)methoxy)(naphthalen-1-yloxy)phosphorylamino)propanoate] | 33 | 0.95 |  | 
12 | COc1nc(N)nc2c1ncn2[C@@H]1O[C@H](COP(=O)(N[C@H](C(=O)OCc2ccccc2)C(C)C)Oc2cccc3ccccc23)[C@H](F)[C@@]1(C)O (stereo partly drawn) [Example 30, (2S)-Benzyl 2-((((2R,3S,4S,5R)-5-(2-amino-6-methoxy-9H-purin-9-yl)-3-fluoro-4-hydroxy-4-methyltetrahydrofuran-2-yl)methoxy)(naphthalen-1-yloxy)phosphorylamino)-3-methylbutanoate] | 19 | 11 |  | 
13 | COc1nc(N)nc2c1ncn2[C@H]1O[C@H](CO)[C@@H](F)[C@]1(C)O [Example 4, (2S,3R,4R,5R)-2-(2-Amino-6-methoxy-9H-purin-9-yl)-4-fluoro-5-(hydroxymethyl)-3-methyltetrahydrofuran-3-ol] |  | > 100 | > 100 | 
14 | COc1nc(N)nc2c1ncn2[C@@H]1O[C@H](COP(=O)(N[C@@H](C)C(=O)OC2CCCCC2)Oc2cccc3ccccc23)[C@@H](F)[C@@]1(C)O (stereo partly drawn) [Example 18, (2S)-Cyclohexyl 2-((((2R,3R,4S,5R)-5-(2-amino-6-methoxy-9H-purin-9-yl)-3-fluoro-4-hydroxy-4-methyltetrahydrofuran-2-yl)methoxy)(naphthalen-1-yloxy)phosphorylamino)propanoate] | 30 | 1.3 |  | 
15 | COc1nc(N)nc2c1ncn2[C@@H]1O[C@H](COP(=O)(N[C@@H](C)C(=O)OCc2ccccc2)Oc2cccc3ccccc23)[C@H](F)[C@@]1(C)O (stereo partly drawn) [Example 28, (2S)-Benzyl 2-((((2R,3S,4S,5R)-5-(2-amino-6-methoxy-9H-purin-9-yl)-3-fluoro-4-hydroxy-4-methyltetrahydrofuran-2-yl)methoxy)(naphthalen-1-yloxy)phosphorylamino)propanoate] | 92 | > 40 |  | 
16 | C[C@@]1(O)[C@H](F)[C@@H](CO)O[C@H]1n1cnc2c(N3CCC3)nc(N)nc21 [Example 7, (2R,3S,4R,5R)-2-(2-Amino-6-(azetidin-1-yl)-9H-purin-9-yl)-4-fluoro-5-(hydroxymethyl)-3-methyltetrahydrofuran-3-ol] |  | 24 | > 100 | > 40
17 | C[C@@]1(O)[C@H](F)[C@@H](CO)O[C@H]1n1cnc2c(=O)[nH]c(N)nc21 [Example 3, 2-amino-9-((2R,3S,4R,5R)-4-fluoro-3-hydroxy-5-(hydroxymethyl)-3-methyltetrahydrofuran-2-yl)-1H-purin-6(9H)-one] |  | > 100 | > 100 | 
18 | COc1nc(N)nc2c1ncn2[C@@H]1O[C@H](COP(=O)(N[C@@H](C)C(=O)OCCC(C)(C)C)Oc2cccc3ccccc23)[C@@H](F)[C@@]1(C)O (stereo partly drawn) [Example 15, (2S)-3,3-Dimethylbutyl 2-((((2R,3R,4S,5R)-5-(2-amino-6-methoxy-9H-purin-9-yl)-3-fluoro-4-hydroxy-4-methyltetrahydrofuran-2-yl)methoxy)(naphthalen-1-yloxy)phosphorylamino)propanoate] | 21 | 0.5 |  | 
